Here are results for eight molecules from ChEMBL document CHEMBL3232804, “Synthesis and evaluation of new diaryl ether and quinoline hybrids as potential antiplasmodial and antimicrobial agents” (Bioorg Med Chem Lett, 2014).

The test system of series [1] is Klebsiella pneumoniae. In words: Antimicrobial activity against Klebsiella pneumoniae ATCC 27736 after 24 hrs by standard broth microdilution method. The class given is functional. As to conditions: ATCC 27736, 24 h.
In series [2] the test system is Plasmodium falciparum. In words: Antiplasmodial activity against chloroquine-sensitive Plasmodium falciparum 3D7 infected after 72 hrs by Malaria SYBR Green I-staining based fluorescence assay. The class given is functional, organism-based. Particulars: 3D7, 72 h.
Series [3] concerns Plasmodium falciparum. The experiment in a line: Antiplasmodial activity against chloroquine-resistant Plasmodium falciparum K1 infected after 72 hrs by Malaria SYBR Green I-staining based fluorescence assay. The class given is functional, organism-based. As to conditions: K1, 72 h.
Series [4] has as its system Sporothrix schenckii. The experiment in a line: Antifungal activity against Sporothrix schenckii clinical isolate after 72 to 96 hrs by standard broth microdilution method. It is filed as functional.
Series [5] concerns Escherichia coli. In words: Antimicrobial activity against Escherichia coli ATCC 9637 after 24 hrs by standard broth microdilution method. The class given is functional. As to conditions: ATCC 9637, 24 h. On the technique in general: Broth dilution looks for growth in wells or tubes with falling amounts of substance.
Series [6] can be described thus: Selectivity index, ratio of IC50 for african green monkey Vero cells to IC50 for chloroquine-sensitive Plasmodium falciparum 3D7. The class given is toxicity, cell-based. As to conditions: read-out: Ratio IC50.
Series [7] concerns Candida albicans. The experiment in a line: Antifungal activity against Candida albicans clinical isolate after 24 to 48 hrs by standard broth microdilution method. It is filed as functional.
Series [8] relates to Candida parapsilosis. The experiment in a line: Antifungal activity against Candida parapsilosis ATCC […] after 72 to 96 hrs by standard broth microdilution method. As to conditions: Lodderomyces parapsilosis. The class given is functional.
Series [9] has as its system Cryptococcus neoformans. The experiment in a line: Antifungal activity against Cryptococcus neoformans clinical isolate after 24 to 48 hrs by standard broth microdilution method. It is filed as functional.
Series [10] deals with Staphylococcus aureus. The experiment in a line: Antimicrobial activity against Staphylococcus aureus ATCC 25923 after 24 hrs by standard broth microdilution method. The class given is functional. Particulars: ATCC 25923, 24 h.
The subject of series [11] is Pseudomonas aeruginosa. The experiment in a line: Antimicrobial activity against Pseudomonas aeruginosa ATCC BAA-427 after 24 hrs by standard broth microdilution method. The class given is functional. As to conditions: ATCC BAA-427, 24 h.
For series [12], the system named is Trichophyton mentagrophytes. In words: Antifungal activity against Trichophyton mentagrophytes clinical isolate after 72 to 96 hrs by standard broth microdilution method. It is filed as functional.
Series [13] relates to Aspergillus fumigatus. In words: Antifungal activity against Aspergillus fumigatus clinical isolate after 72 to 96 hrs by standard broth microdilution method. The class given is functional.

SMILES strings stand for the structures. Converted amounts (≈) assume the structure as drawn.

For the molecule `COC(=O)/C(C)=C/c1ccc(Oc2ccccc2N/C(=N/c2cccc(Cl)c2)NCCCCNc2ccnc3cc(Cl)ccc23)cc1`, the MIC is greater than 50 µg/mL in [1]; greater than 50 µg/mL in series [4]; 12.5 µg/mL (≈ 18.7 µM) in series [5]; 50 µg/mL (≈ 74.8 µM) in series [7]; greater than 50 µg/mL in [8]; greater than 50 µg/mL in series [9]. Moreover, the MIC in series [10] was 3.12 µg/mL (≈ 4.67 µM); in [11] it was greater than 50 µg/mL; in series [12], greater than 50 µg/mL; in series [13], greater than 50 µg/mL. Also, the IC50 is 31.2 nM in series [2] and greater than 800 nM in series [3]. Further, the selectivity ratio in [6] turned out to be 80.7.
Turning to `COC(=O)/C(C)=C/c1ccc(Oc2ccc(N/C(=N/c3cccc(Cl)c3)NCCCNc3ccnc4cc(Cl)ccc34)cc2)cc1`, the MIC was 50 µg/mL (≈ 76.4 µM) in series [1]; 50 µg/mL (≈ 76.4 µM) in series [4]; 6.25 µg/mL (≈ 9.55 µM) in series [5]; greater than 50 µg/mL in series [7]; 50 µg/mL (≈ 76.4 µM) in [8]; greater than 50 µg/mL in [9]. The MIC is 6.25 µg/mL (≈ 9.55 µM) in series [10], greater than 50 µg/mL in [11], 50 µg/mL (≈ 76.4 µM) in series [12] and greater than 50 µg/mL in series [13]. The IC50 in [2] came out at 78.2 nM; in [3], 71.4 nM. In addition, the selectivity ratio in series [6] turned out to be 21.9.
On to `Clc1ccc(Cl)c(Oc2ccc(N/C(=N/c3ccccc3)NCCNc3ccnc4cc(Cl)ccc34)cc2)c1`, for which the MIC in series [1] was greater than 50 µg/mL; in [4], 3.12 µg/mL (≈ 5.41 µM); in series [5], 6.25 µg/mL (≈ 10.8 µM); in [7], 3.12 µg/mL (≈ 5.41 µM); in series [8], 3.12 µg/mL (≈ 5.41 µM); in series [9] it was 6.25 µg/mL (≈ 10.8 µM). Further, the MIC in [10] is 12.5 µg/mL (≈ 21.7 µM); in [11] it was greater than 50 µg/mL; in series [12], 6.25 µg/mL (≈ 10.8 µM); in series [13], 12.5 µg/mL (≈ 21.7 µM). Further, the half-inhibitory concentration (IC50) was 39.5 nM in series [2] and greater than 866 nM in [3]. The selectivity ratio in series [6] amounted to 109.
Take `COC(=O)/C(C)=C/c1ccc(Oc2ccc(N/C(=N/c3ccccc3)NCCCNc3ccnc4cc(Cl)ccc34)cc2)cc1`: the MIC in [1] is greater than 50 µg/mL; in series [4], 6.25 µg/mL (≈ 10.1 µM); in series [5] it was 50 µg/mL (≈ 80.6 µM); in [7], 6.25 µg/mL (≈ 10.1 µM); in series [8], 25 µg/mL (≈ 40.3 µM); in [9], 6.25 µg/mL (≈ 10.1 µM). In addition, the MIC in [10] was 25 µg/mL (≈ 40.3 µM); in [11], greater than 50 µg/mL; in series [12], 12.5 µg/mL (≈ 20.2 µM); in series [13] it was 25 µg/mL (≈ 40.3 µM). Moreover, the IC50 in [2] is 78.2 nM; in series [3] it was greater than 800 nM. Further, in series [6], the selectivity ratio came out at 84.3.
For `COC(=O)/C(C)=C/c1ccc(Oc2ccc(N/C(=N/c3ccc(Cl)cc3)NCCNc3ccnc4cc(Cl)ccc34)cc2)cc1`, the MIC in series [1] worked out at 50 µg/mL (≈ 78.1 µM); in series [4] it was 6.25 µg/mL (≈ 9.76 µM); in series [5], 12.5 µg/mL (≈ 19.5 µM); in series [7] it was 6.25 µg/mL (≈ 9.76 µM); in series [8], 25 µg/mL (≈ 39 µM); in series [9] it was 6.25 µg/mL (≈ 9.76 µM). Further, the MIC in series [10] is 6.25 µg/mL (≈ 9.76 µM); in series [11], greater than 50 µg/mL; in series [12], 12.5 µg/mL (≈ 19.5 µM); in series [13], 25 µg/mL (≈ 39 µM). The half-inhibitory concentration (IC50) in [2] was 43.1 nM; in series [3], greater than 800 nM. The selectivity ratio in [6] was 69.2.
`Clc1cccc(/N=C(\NCCCNc2ccnc3cc(Cl)ccc23)Nc2ccccc2Oc2cc(Cl)ccc2Cl)c1`: the MIC in [1] is greater than 50 µg/mL; in series [4], 50 µg/mL (≈ 80 µM); in series [5] it was 6.25 µg/mL (≈ 9.99 µM); in [7], 25 µg/mL (≈ 40 µM); in series [8], 50 µg/mL (≈ 80 µM); in series [9] it was 50 µg/mL (≈ 80 µM). In addition, the MIC in [10] was 1.56 µg/mL (≈ 2.49 µM); in [11], greater than 50 µg/mL; in [12], 50 µg/mL (≈ 80 µM); in series [13], greater than 50 µg/mL. In addition, the IC50 in series [2] turned out to be 87.7 nM; in series [3], 77.7 nM. In series [6], the selectivity ratio was determined as 18.7.
`COc1ccc(Oc2ccc(N/C(=N/c3ccc(Cl)cc3)NCCNc3ccnc4cc(Cl)ccc34)cc2)cc1`: the MIC in series [1] was 12.5 µg/mL (≈ 21.8 µM); in series [4], 6.25 µg/mL (≈ 10.9 µM); in series [5], 6.25 µg/mL (≈ 10.9 µM); in series [7], 12.5 µg/mL (≈ 21.8 µM); in [8], 12.5 µg/mL (≈ 21.8 µM); in [9] it was 25 µg/mL (≈ 43.7 µM). In addition, the MIC in series [10] is 6.25 µg/mL (≈ 10.9 µM); in series [11], greater than 50 µg/mL; in [12] it was 12.5 µg/mL (≈ 21.8 µM); in series [13], 25 µg/mL (≈ 43.7 µM). The IC50 in series [2] stood at 69 nM; in series [3] it was 105 nM. For the same molecule, the selectivity ratio in series [6] came to 122.
Regarding `Clc1ccc(/N=C(\NCCCNc2ccnc3cc(Cl)ccc23)Nc2ccccc2Oc2cc(Cl)ccc2Cl)cc1`, the MIC is greater than 50 µg/mL in series [1]; 25 µg/mL (≈ 40 µM) in series [4]; 12.5 µg/mL (≈ 20 µM) in [5]; 6.25 µg/mL (≈ 9.99 µM) in series [7]; 50 µg/mL (≈ 80 µM) in series [8]; 25 µg/mL (≈ 40 µM) in series [9]. For the same molecule, the MIC was 6.25 µg/mL (≈ 9.99 µM) in series [10], greater than 50 µg/mL in [11], greater than 50 µg/mL in series [12] and greater than 50 µg/mL in [13]. Further, the IC50 in series [2] is 87.2 nM; in series [3], greater than 800 nM. For the same molecule, the selectivity ratio in [6] was found to be 112.

What is called MIC is the smallest concentration in the dilution series that meets the test's criterion for growth inhibition. What is called IC50 is the point on the concentration scale where inhibition reaches its midpoint.
